Entries after “also recorded” stand apart in the source; their conditions may differ.
Assays:
[1] = test system: mouse T lymphocytes stimulated with the combination of ionomycin plus PMA; assay: T-cell proliferation assay (ionomycin plus PMA induced T-cell stimulation, tritiated thymidine uptake); assay type: cell-based, C57B1/6 mice
Source text: The principle of this assay is to measure the proliferation of mouse T lymphocytes stimulated with the combination of ionomycin plus PMA. A positive sample in this assay will inhibit T-cell proliferation, as indicated by reduced tritiated thymidine uptake.
Spleens from C57B1/6 mice were taken under sterile conditions and gently dissociated in ice-cold RPMI 1640 culture medium (GIBCO, Grand Island, N.Y.) supplemented with 10% heat-inactivated fetal calf serum (GIBCO). Cells were pelleted by centrifugation at 1500 rpm for 8 minutes. Contaminating red cells were removed by treating the pellet with ammonium chloride lysing buffer (GIBCO) for 2 minutes at 4°C. […]
Purified T lymphocytes were resuspended at 2.5 x 10⁵ cells/ml in complete culture medium composed of RPMI 1640 medium with 10% heat-inactivated fetal calf serum, […] glutamine, 1 mM sodium pyruvate, 2 x 10⁻⁵ M 2-mercaptoethanol and 50 µg/ml gentamycin. […] The proliferation of T lymphocytes was assessed by measurement of tritiated thymidine incorporation. […] Radioactivity of filter discs corresponding to individual wells was measured by standard liquid scintillation counting methods (Beta counter). Mean counts per minute of replicate wells were calculated and the results expressed as percent inhibition of tritiated thymidine uptake (proliferation) as follows: [formula] […]

[2] = Physical characteristics: solubility; assay type: physicochemical; details: solvent methanol; qualitative
Source text: White amorphous powder • 2. […] Molecular weight of 805, as determined by mass spectrometry consistent with a molecular ion at (m/z) 1093.6556 for the tetra-(trimethylsilyl) derivative and characteristic fragment ions at (m/z) 673 and 481.
White amorphous powder • 2. […] Molecular weight of 805, as determined by mass spectrometry consistent with a molecular ion at (m/z) 1021.6169 for the tri-(trimethylsilyl) derivative and characteristic fragment ions at (m/z) 675 and 483.

- Solubility [2]: Solubility in methanol
Structure (SMILES): CCC[C@@H]1/C=C(\C)C[C@H](C)C[C@H](OC)[C@H]2O[C@@](O)(C(=O)C(=O)N3CCCC[C@H]3C(=O)O[C@H](/C(C)=C/[C@@H]3CC[C@@H](O)[C@H](OC)C3)[C@H](C)[C@@H](O)CC1=O)[C@H](C)C[C@@H]2OC [Tsukubamycin B]
- inhibition of T-cell proliferation after addition of IL-2 ([1]; 50 units/ml of IL-2 (recombinant human IL-2) added at the initiation of culture): reversed
- inhibition of T-cell activation / % inhibition of tritiated thymidine uptake (proliferation) ([1]; purified mouse spleen T lymphocytes, ionomycin 250 ng/ml plus PMA 10 ng/ml, 44 hours culture plus 4 hours pulse, various concentrations, no numbers given): indicated its immunosuppressant properties; also recorded: positive inhibition of T-cell activation

— patent EP0358508A2, “Novel immunosuppressant compound” (MERCK & CO. INC., priority 1988, dated 1990)
